# Experiments:
# [1] = tested on: healthy participants; assay: Safety and tolerability; format: in vivo, human
# [2] = tested on: activated partial thromboplastin time (aPTT); assay: Activated partial thromboplastin time; format: in vivo, human
# [3] = Multiple ascending dose; conditions: for Tmax: median (min-max)
# [4] = Urinary excretion of milvexian; format: in vivo, human
# [5] = tested on: prothrombin time; assay: Prothrombin time, ex vivo pharmacodynamics; format: in vivo, human; conditions: SAD and MAD panels; data not shown
# [6] = Single ascending dose; format: in vivo, human; conditions: for increase in bioavailability by food intake: fed vs fasted; for AUC: AUC(0‐T); for AUC / Cmax: n = 6, geometric mean (geometric CV%); for Cmax: fed (high-fat breakfast)
# [7] = MAD, all participants treated with milvexian, N = 42
# [8] = all SAD and MAD dosing regimens
smiles,measurement,setting,value
C[C@@H]1CCC[C@H](n2cnc(-c3cc(Cl)ccc3-n3cc(Cl)nn3)cc2=O)c2cc(ccn2)-c2c(cnn2C(F)F)NC1=O [milvexian],participants reporting TEAEs,"[1]; MAD panels, participants who received milvexian (21 participants)",50.0%
same,Abdominal discomfort (TEAE),[1]; [7],2 (4.8) n (%)
same,Abdominal pain (TEAE),[1]; [7],2 (4.8) n (%)
same,Any TEAE,[1]; [7],21 (50.0) n (%)
same,Diarrhea (TEAE),[1]; [7],5 (11.9) n (%)
same,Dizziness (TEAE),[1]; [7],3 (7.1) n (%)
same,Headache (TEAE),[1]; [7],6 (14.3) n (%)
same,Nausea (TEAE),[1]; [7],3 (7.1) n (%)
same,Oropharyngeal pain (TEAE),[1]; [7],2 (4.8) n (%)
same,Pain in extremity (TEAE),[1]; [7],2 (4.8) n (%)
same,ECG abnormalities,[1]; SAD and MAD,no clinically significant ECG abnormalities
same,incidence of laboratory and vital sign abnormalities vs placebo,[1]; SAD and MAD,no relevant differences
same,participants reporting TEAEs,"[1]; SAD panels, fasted participants who received milvexian (three participants)",8.3%
same,deaths or other SAEs,"[1]; SAD up to 500 mg, MAD up to 200 mg b.i.d. or 500 mg q.d.",No deaths or other SAEs occurred
same,Headache (TEAE),"[1]; SAD, 300 mg, fasted",2 n
same,nausea (TEAE) after a high-fat breakfast,"[1]; SAD, 500-mg group, fed (one participant)",16.7%
same,clinically significant bleeding events,[1]; [8],no clinically significant bleeding events
same,severity of TEAEs,[1]; [8],mild
same,platelet count at next sampling time 2 days later,"[1]; same participant, 35-mg b.i.d. group, within normal limits",1.84e+11 L⁻¹
same,maximal mean percent increase from baseline in aPTT,[2]; fasted SAD panel 4 mg,11.9%
same,maximal mean percent increase from baseline in aPTT,[2]; fasted SAD panel 20 mg,36.7%
same,maximal mean percent increase from baseline in aPTT,[2]; fasted SAD panel 60 mg,85.2%
same,maximal mean percent increase from baseline in aPTT,[2]; fasted SAD panel 200 mg,147.1%
same,maximal mean percent increase from baseline in aPTT,[2]; fasted SAD panel 300 mg,140.8%
same,maximal mean percent increase from baseline in aPTT,[2]; fasted SAD panel 500 mg,188.3%
same,time to steady-state plasma concentration,"[3]; MAD 5-mg q.d. panel, visual inspection of trough concentrations",1 dosing day
same,dose proportionality of increases in exposure,"[3]; MAD day 14, 5-500 mg",greater than dose‐proportional
same,time to steady-state plasma concentration,"[3]; MAD, once-daily dosing",≤ 3 dosing days
same,AUC,"[3]; human, in vivo, 5 mg, AUC(0‐T), MAD panel 7, 5 mg q.d. fasted, day 14, n = 5, geometric mean (geometric CV%)",146 ng·h/mL
same,AUC,"[3]; human, in vivo, 5 mg, AUC(TAU), MAD panel 7, 5 mg q.d. fasted, day 14, n = 5, geometric mean (geometric CV%)",146 ng·h/mL
same,Cmax at 14 days,"[3]; human, in vivo, 5 mg, Cmax, MAD panel 7, 5 mg q.d. fasted, day 14, n = 5, geometric mean (geometric CV%)",14.8 ng/mL
same,Tmax,"[3]; human, in vivo, 5 mg, MAD panel 7, 5 mg q.d. fasted, day 14, n = 5",2.03 h
same,AUC,"[3]; human, in vivo, 20 mg, AUC(0‐T), MAD panel 8, 20 mg q.d. fasted, day 14, n = 6, geometric mean (geometric CV%)",1660 ng·h/mL
same,AUC,"[3]; human, in vivo, 20 mg, AUC(TAU), MAD panel 8, 20 mg q.d. fasted, day 14, n = 6, geometric mean (geometric CV%)",1370 ng·h/mL
same,Cmax at 14 days,"[3]; human, in vivo, 20 mg, Cmax, MAD panel 8, 20 mg q.d. fasted, day 14, n = 6, geometric mean (geometric CV%)",171 ng/mL
same,Tmax,"[3]; human, in vivo, 20 mg, MAD panel 8, 20 mg q.d. fasted, day 14, n = 6",2.5 h
same,AUC,"[3]; human, in vivo, 70 mg, AUC(TAU), MAD panel 9, 70 mg q.d. fasted, day 14, n = 5, geometric mean (geometric CV%)",4220 ng·h/mL
same,Cmax at 14 days,"[3]; human, in vivo, 70 mg, Cmax, MAD panel 9, 70 mg q.d. fasted, day 14, n = 5, geometric mean (geometric CV%)",434 ng/mL
same,Tmax,"[3]; human, in vivo, 70 mg, MAD panel 9, 70 mg q.d. fasted, day 14, n = 5",3 h
same,AUC,"[3]; human, in vivo, 200 mg, AUC(0‐T), MAD panel 10, 200 mg q.d. fasted, day 14, n = 6, geometric mean (geometric CV%)",18900 ng·h/mL
same,AUC,"[3]; human, in vivo, 200 mg, AUC(TAU), MAD panel 10, 200 mg q.d. fasted, day 14, n = 6, geometric mean (geometric CV%)",14600 ng·h/mL
same,Cmax at 14 days,"[3]; human, in vivo, 200 mg, Cmax, MAD panel 10, 200 mg q.d. fasted, day 14, n = 6, geometric mean (geometric CV%)",1510 ng/mL
same,Tmax,"[3]; human, in vivo, 200 mg, MAD panel 10, 200 mg q.d. fasted, day 14, n = 6",3.5 h
same,AUC,"[3]; human, in vivo, 500 mg, AUC(0‐T), MAD panel 11, 500 mg q.d. fed, day 14, n = 6, geometric mean (geometric CV%)",142000 ng·h/mL
same,AUC,"[3]; human, in vivo, 500 mg, AUC(TAU), MAD panel 11, 500 mg q.d. fed, day 14, n = 6, geometric mean (geometric CV%)",95100 ng·h/mL
same,Cmax,"[3]; human, in vivo, 500 mg, Cmax, MAD panel 11, 500 mg q.d. fed, day 14, n = 6, geometric mean (geometric CV%)",7600 ng/mL
same,Tmax,"[3]; human, in vivo, 500 mg, MAD panel 11, 500 mg q.d. fed, day 14, n = 6",4 h
same,half-life,"[3]; human, in vivo, mean T1/2, range across MAD panels, MAD",11.4 to 18.1 h
same,mean total amount excreted in urine from 0 to 24 h postdose,"[4]; MAD panel 9, 70 mg q.d., day 1",14.8 % of the administered dose
same,mean total amount excreted in urine from 0 to 24 h postdose,"[4]; MAD panel 9, 70 mg q.d., day 14",17.3 % of the administered dose
same,mean total amount excreted in urine from 0 to 24 h postdose,"[4]; MAD panel 10, 200 mg q.d., day 1",10.4 % of the administered dose
same,mean total amount excreted in urine from 0 to 24 h postdose,"[4]; MAD panel 10, 200 mg q.d., day 14",14.1 % of the administered dose
same,Renal excretion,[4]; all panels,less than 20%
same,Prothrombin time,[5],not increased at any time
same,increase in bioavailability by food intake,[6]; SAD 200-mg panel,~ 1.4 fold
same,increase in bioavailability by food intake,[6]; SAD 500-mg panel,~ 2 fold
same,mean T1/2 shortened when administered with food,"[6]; SAD panels 4 and 6, fed vs fasted",1.5 h
same,dose proportionality of Cmax and exposure,"[6]; SAD, fasted, 20 to 200 mg",generally dose‐proportional
same,AUC,"[6]; human, plasma, oral, 4 mg, SAD panel 1, 4 mg, fasted",125 ng·h/mL
same,AUC,"[6]; human, plasma, oral, 20 mg, SAD panel 2, 20 mg, fasted",1220 ng·h/mL
same,AUC,"[6]; human, plasma, oral, 60 mg, SAD panel 3, 60 mg, fasted",3790 ng·h/mL
same,AUC,"[6]; human, plasma, oral, 200 mg, SAD panel 4, 200 mg, fasted",12500 ng·h/mL
same,AUC,"[6]; human, plasma, oral, 200 mg, SAD panel 4, 200 mg, fed",17800 ng·h/mL
same,Cmax,"[6]; human, plasma, oral, 200 mg, SAD panel 4, 200 mg",1640 ng/mL
same,AUC,"[6]; human, plasma, oral, 300 mg, SAD panel 5, 300 mg, fasted",14600 ng·h/mL
same,AUC,"[6]; human, plasma, oral, 500 mg, SAD panel 6, 500 mg, fasted",21000 ng·h/mL
same,AUC,"[6]; human, plasma, oral, 500 mg, SAD panel 6, 500 mg, fed",44300 ng·h/mL
same,Cmax,"[6]; human, plasma, oral, 500 mg, SAD panel 6, 500 mg",3360 ng/mL
same,half-life,"[6]; human, plasma, oral, T1/2, range across all SAD panels, SAD, 4-500 mg",8.3 to 13.8 h
same,Tmax,"[6]; human, plasma, oral, Tmax, summary in discussion, rapid absorption",2 to 4 h

# — PMC8841437 (Clinical and Translational Science, 2021)
